Assay results reported in US8349824B2, “Triazolopyridine compounds” (Hoffmann-La Roche Inc., priority 2010, dated 2013).

What was measured:
human PDE10A full length = target: T1, human PDE10A full length (Homo sapiens, UniProt Q9Y233); assay: PDE10A Scintillation Proximity Assay (SPA), human PDE10A full length assay; format: biochemical; conditions: 50 nM cGMP + 50 nM [3H]-cGMP, 20 minutes at room temperature, read-out: PDE10A inhibition IC50
T1 construct: purchased Enzo Life Science, Lausen, Switzerland SE-534
T1 sequence (Q9Y233 1-779 isoform Q9Y233-1): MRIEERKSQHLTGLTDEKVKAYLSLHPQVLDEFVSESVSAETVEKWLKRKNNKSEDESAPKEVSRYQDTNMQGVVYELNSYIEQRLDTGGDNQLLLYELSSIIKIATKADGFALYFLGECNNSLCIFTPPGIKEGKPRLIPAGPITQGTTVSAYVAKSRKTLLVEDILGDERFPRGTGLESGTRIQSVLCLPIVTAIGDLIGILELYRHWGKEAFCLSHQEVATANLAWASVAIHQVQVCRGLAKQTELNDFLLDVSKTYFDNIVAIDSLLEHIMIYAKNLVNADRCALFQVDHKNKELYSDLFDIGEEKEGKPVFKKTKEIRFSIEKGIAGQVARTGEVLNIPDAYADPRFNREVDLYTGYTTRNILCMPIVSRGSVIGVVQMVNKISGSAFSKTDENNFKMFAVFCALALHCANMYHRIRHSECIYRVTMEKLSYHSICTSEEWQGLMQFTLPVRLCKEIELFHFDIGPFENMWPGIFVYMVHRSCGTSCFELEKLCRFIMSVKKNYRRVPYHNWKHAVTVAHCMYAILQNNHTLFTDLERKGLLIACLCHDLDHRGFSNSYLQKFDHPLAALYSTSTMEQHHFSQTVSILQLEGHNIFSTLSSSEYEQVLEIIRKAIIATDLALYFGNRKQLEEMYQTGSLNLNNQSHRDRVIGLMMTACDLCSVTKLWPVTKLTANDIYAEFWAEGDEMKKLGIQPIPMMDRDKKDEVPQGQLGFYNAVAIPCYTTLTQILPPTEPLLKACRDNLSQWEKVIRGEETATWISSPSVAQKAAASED
Procedure, shortened: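 IC50 values come from radioactive counts across a range of inhibitor concentrations, using YSi-SPA beads in zinc sulphate as stop reagent. Full-length enzyme hydrolysed 50 nM cGMP with 50 nM [3H]-cGMP for 20 min at room temperature in pH 7.5 HEPES buffer containing 10 mM MgCl2 and 0.05 mg/ml BSA.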

Compound	IC50 (human PDE10A full length) [nM]	melting point [°C]
CCN(C)c1nc2cc(NC(=O)c3c(C(=O)N4CCOCC4)cnn3C)ccn2n1 [Example 59, 2-Methyl-4-(morpholine-4-carbonyl)-2H-pyrazole-3-carboxylic acid [2-(ethyl-methyl-amino)-[1,2,4]triazolo[1,5-a]pyridin-7-yl]-amide]	7.97	167 to 169
Cn1ncc(C(=O)N2CCC2)c1C(=O)Nc1ccn2nc(N3CCCC3)nc2c1 [Example 60, 4-(Azetidine-1-carbonyl)-2-methyl-2H-pyrazole-3-carboxylic acid (2-pyrrolidin-1-yl-[1,2,4]triazolo[1,5-a]pyridin-7-yl)-amide]	3.16	> 250
Cn1ncc(C(=O)N2CCOCC2)c1C(=O)Nc1ccn2nc(N3CCCC3)nc2c1 [Example 61, 2-Methyl-4-(morpholine-4-carbonyl)-2H-pyrazole-3-carboxylic acid (2-pyrrolidin-1-yl-[1,2,4]triazolo[1,5-a]pyridin-7-yl)-amide]	0.94	194 to 197
CCNC(=O)c1nc2cc(NC(=O)c3c(C(=O)N4CCC4)cnn3C)ccn2n1 [Example 63, 7-{[4-(Azetidine-1-carbonyl)-2-methyl-2H-pyrazole-3-carbonyl]-amino}-[1,2,4]triazolo[1,5-a]pyridine-2-carboxylic acid ethylamide]	93.7	217 to 229
COCCNC(=O)c1nc2cc(NC(=O)c3c(C(=O)N4CCC4)cnn3C)ccn2n1 [Example 64, 7-(4-(Azetidine-1-carbonyl)-1-methyl-1H-pyrazole-5-carboxamido)-N-(2-methoxyethyl)-[1,2,4]triazolo[1,5-a]pyridine-2-carboxamide]	104	159 to 161
Cn1ncc(C(=O)N2CCC2)c1C(=O)Nc1ccn2nc(Br)nc2c1 [Example 65, 4-(Azetidine-1-carbonyl)-2-methyl-2H-pyrazole-3-carboxylic acid (2-bromo-[1,2,4]triazolo[1,5-a]pyridin-7-yl)-amide]	67.4	> 250
Cn1ncc(C(=O)N2CCC2)c1C(=O)Nc1ccn2nc(-c3ccncc3)nc2c1 [Example 66, 4-(Azetidine-1-carbonyl)-2-methyl-2H-pyrazole-3-carboxylic acid (2-pyridin-4-yl-[1,2,4]triazolo[1,5-a]pyridin-7-yl)-amide]	1.82	> 250
Cc1cc(-c2nc3cc(NC(=O)c4c(C(=O)N5CCC5)cnn4C)ccn3n2)ccn1 [Example 67, 4-(Azetidine-1-carbonyl)-2-methyl-2H-pyrazole-3-carboxylic acid [2-(2-methyl-pyridin-4-yl)-[1,2,4]triazolo[1,5-a]pyridin-7-yl]-amide]	2.06	210 to 211
Cc1cncc(-c2nc3cc(NC(=O)c4c(C(=O)N5CCC5)cnn4C)ccn3n2)c1 [Example 68, 4-(Azetidine-1-carbonyl)-2-methyl-2H-pyrazole-3-carboxylic acid [2-(5-methyl-pyridin-3-yl)-[1,2,4]triazolo[1,5-a]pyridin-7-yl]-amide]	11.2	262 to 264
CN(CCF)c1nc2cc(NC(=O)c3c(C(=O)N4CCC4)cnn3C)ccn2n1 [Example 70, 4-(Azetidine-1-carbonyl)-2-methyl-2H-pyrazole-3-carboxylic acid {2-[(2-fluoro-ethyl)-methyl-amino]-[1,2,4]triazolo[1,5-a]pyridin-7-yl}-amide]	5.65	236 to 237
CN(CCF)c1nc2cc(NC(=O)c3c(C(=O)N4CCOCC4)cnn3C)ccn2n1 [Example 71, 2-Methyl-4-(morpholine-4-carbonyl)-2H-pyrazole-3-carboxylic acid {2-[(2-fluoro-ethyl)-methyl-amino]-[1,2,4]triazolo[1,5-a]pyridin-7-yl}-amide]	6.21	144 to 145
